What all share (type): cell-based
Assay [1] deals with HGF. Nature of the assay: Relative excretion of HGF (ELISA) in organotypic hair follicle cell cultures. The conditions noted are these: 72 hours, untreated = 100. An excerpt:
(§1) L-Carnitine and L-carnitine tartrate were investigated with regard to their effects on ATP synthesis the excretion of the growth factors HGF (hepatocyte growth factors) and KGF (keratinocyte growth factor). ATP (adenosine triphosphate) is the universal storage form for chemical energy in cells. Release of the phosphate groups yields ADP and Pi (inorganic phosphate). This reaction is highly exergonic, i.e. energy is released. ATP is produced in the cellular oxidative breakdown of fats, carbohydrates, and proteins. It serves as an energy supply for biochemical syntheses (including melanin synthesis), for transport operations (active transport), and for mechanical work. These processes are endergonic, i.e. they proceed only when energy is delivered. HGF and KGF are important growth factors with which the dermal papilla controls hair growth and the hair cycle, to which pigment production in the hair follicle is linked in particular fashion. Melanin formation takes place exclusively in the anagen phase of the hair cycle. […]
(§2) The excretion of HGF and KGF can be quantified with the aid of a commercially obtainable ELISA kit. For this, organotypic hair follicle cell cultures made up of dermal papilla cells, hair follicle melanocytes, and outer root sheath keratinocytes are incubated for 72 hours with carnitine tartrate, and the concentration of HGF and KGF in the medium is determined.

Assay [2] concerns KGF. Nature of the assay: Relative excretion of KGF (ELISA) in organotypic hair follicle cell cultures. Particulars: 72 hours, untreated = 100.
Source text: as §1, §2

The subject of assay [3] is organotypic cell cultures made up of three-dimensionally cultivated dermal papilla cells. Nature of the assay: ATP content in hair follicle cell cultures (ATPlite-M assay). Particulars: 24 hours, untreated = 100. An excerpt:
L-Carnitine and L-carnitine tartrate were investigated with regard to their effects on ATP synthesis the excretion of the growth factors HGF (hepatocyte growth factors) and KGF (keratinocyte growth factor). ATP (adenosine triphosphate) is the universal storage form for chemical energy in cells. Release of the phosphate groups yields ADP and Pi (inorganic phosphate). This reaction is highly exergonic, i.e. energy is released. ATP is produced in the cellular oxidative breakdown of fats, carbohydrates, and proteins. It serves as an energy supply for biochemical syntheses (including melanin synthesis), for transport operations (active transport), and for mechanical work. These processes are endergonic, i.e. they proceed only when energy is delivered. HGF and KGF are important growth factors with which the dermal papilla controls hair growth and the hair cycle, to which pigment production in the hair follicle is linked in particular fashion. Melanin formation takes place exclusively in the anagen phase of the hair cycle. In addition, a variety of publications have discussed the effect of HGF on DNA synthesis, on growth, and on the differentiation of melanocytes.
The ATP determination was performed using the ATPlite™-M assay (Packard). The test principle of this assay is based on the fact that the luciferase of Photinus pyralis catalyzes a reaction in which D-luciferin is converted into oxyluciferin in the presence of ATP. This reaction causes the emission of green light, which can be measured with a luminometer. The emitted bioluminescent light is proportional to the quantity of ATP present.
The ATP activity determination was performed in organotypic cell cultures made up of three-dimensionally cultivated dermal papilla cells. The treatment with carnitine and carnitine tartrate occurred over 24 hours, against an untreated control.

Assay [4] deals with ckit. Nature of the assay: Differential gene expression by quantitative RT-PCR in organotypic hair follicle cell cultures: ckit. Particulars: 48 h incubation, untreated control = 1. The text has this: Ligands participating in melanogenesis, such as SCF or alpha-MSH (melanocyte stimulating hormone alpha), bind to a variety of receptors by means of which the corresponding signal is delivered into the interior of the cell. The receptor for SCF is ckit, the receptor for alpha-MSH is MCR-1 (melanocortin receptor 1). Those substances that bring about a change in the expression of MCR-1 and/or ckit can influence melanogenesis. In the case of an induction (upregulation or stimulation) of the gene expression of the corresponding receptors, a stimulation of melanogenesis is to be assumed. A determination of the extent of the change in gene expression after an application of such substances onto suitable cells/cell systems/tissue cultures can provide information regarding the efficacy of the active substance. Differential gene expression was determined by means of quantitative RT-PCR. After three-dimensional organotypic hair follicle cell cultures from dermal papilla cells had been produced on microcarriers, the latter were incubated for 48 h with dihydroquercetin in two different concentrations. In order to carry out the PCR, firstly the RNA was isolated from the organotypic cell cultures using the RNeasy Mini Kit of the Qiagen company, and it was transcribed into cDNA by reverse transcription. In the context of the subsequent PCR reaction, which was carried out using gene-specific primers for the respective genes and which serves to amplify the desired gene segments, formation of the PCR products was detected online by way of a fluorescence signal, which is proportional to the quantity of PCR product formed. The stronger the expression of a specific gene, the greater the quantity of PCR product formed, and the higher the fluorescence signal. The quantify the gene expression, the untreated control was set to equal 1, and expression of the genes to be determined was referred to it (X-times expression). […]

The test system of assay [5] is MCR1 (melanocortin receptor 1). Nature of the assay: Differential gene expression by quantitative RT-PCR in organotypic hair follicle cell cultures: MCR1. The conditions noted are these: 48 h incubation, untreated control = 1. The text has this: Ligands participating in melanogenesis, such as SCF or alpha-MSH (melanocyte stimulating hormone alpha), bind to a variety of receptors by means of which the corresponding signal is delivered into the interior of the cell. The receptor for SCF is ckit, the receptor for alpha-MSH is MCR-1 (melanocortin receptor 1). Those substances that bring about a change in the expression of MCR-1 and/or ckit can influence melanogenesis. In the case of an induction (upregulation or stimulation) of the gene expression of the corresponding receptors, a stimulation of melanogenesis is to be assumed. A determination of the extent of the change in gene expression after an application of such substances onto suitable cells/cell systems/tissue cultures can provide information regarding the efficacy of the active substance. Differential gene expression was determined by means of quantitative RT-PCR. After three-dimensional organotypic hair follicle cell cultures from dermal papilla cells had been produced on microcarriers, the latter were incubated for 48 h with dihydroquercetin in two different concentrations. In order to carry out the PCR, firstly the RNA was isolated from the organotypic cell cultures using the RNeasy Mini Kit of the Qiagen company, and it was transcribed into cDNA by reverse transcription. In the context of the subsequent PCR reaction, which was carried out using gene-specific primers for the respective genes and which serves to amplify the desired gene segments, formation of the PCR products was detected online by way of a fluorescence signal, which is proportional to the quantity of PCR product formed. The stronger the expression of a specific gene, the greater the quantity of PCR product formed, and the higher the fluorescence signal. The quantify the gene expression, the untreated control was set to equal 1, and expression of the genes to be determined was referred to it (X-times expression). […] Values that are greater than or equal to 1.5 times the expression, or less than or equal to 0.7 times the expression, of the untreated control are classified as tending toward differential expression.

Assay [6] relates to gp100. The experiment in a line: Differential gene expression by quantitative RT-PCR in organotypic hair follicle cell cultures: gp100. The conditions noted are these: 48 h incubation, untreated control = 1. The text has this: Gp100 is a protein that occurs in the membrane of melanosomes and stabilizes it. Because more melanin is produced in the cells after the application of substances that positively influence melanogenesis, an increase also occurs in the number of melanosomes required for transport. A substance that induces the gene expression of gp100 is therefore a pigmentation-stimulating active substance. A determination of the extent of the change in gene expression after an application of such substances onto suitable cells/cell systems/tissue cultures can provide information regarding the efficacy of the active substance. Differential gene expression was determined by means of quantitative RT-PCR. After three-dimensional organotypic hair follicle cell cultures from dermal papilla cells had been produced on microcarriers, the latter were incubated for 48 h with dihydroquercetin in two different concentrations. In order to carry out the PCR, firstly the RNA was isolated from the organotypic cell cultures using the RNeasy Mini Kit of the Qiagen company, and it was transcribed into cDNA by reverse transcription. In the context of the subsequent PCR reaction, which was carried out using gene-specific primers for the respective genes and which serves to amplify the desired gene segments, formation of the PCR products was detected online by way of a fluorescence signal, which is proportional to the quantity of PCR product formed. The stronger the expression of a specific gene, the greater the quantity of PCR product formed, and the higher the fluorescence signal. The quantify the gene expression, the untreated control was set to equal 1, and expression of the genes to be determined was referred to it (X-times expression). […] Values that are greater than or equal to 1.5 times the expression, or less than or equal to 0.7 times the expression, of the untreated control are classified as tending toward differential expression.

For assay [7], the system named is three-dimensional organotypic hair follicle cell cultures made up of dermal papilla cells, hair follicle melanocytes, and outer root sheath keratinocytes. Nature of the assay: Melanin content in hair follicle equivalents. The text has this:
Melanin is a dye that is produced and stored in the melanosomes of melanocytes. Melanin gives hair its actual color, the color being produced by a mixture of two types of melanin, eumelanin and pheomelanin. Melanogenesis is a complicated synthesis process regulated in many ways. Firstly, tyrosine is converted by the enzyme tyrosinase into L-dihydroxyphenylalanine (L-DOPA), and then via multiple intermediate steps into the various melanin pigments. An active substance that positively influences melanogenesis and results in an elevated melanin content in the hair follicle melanocytes is particularly suitable for influencing the natural pigmentation process of skin and/or skin appendages, preventing hair graying, and/or stimulating pigmentation.
To investigate the melanin content, three-dimensional organotypic hair follicle cell cultures made up of dermal papilla cells, hair follicle melanocytes, and outer root sheath keratinocytes were treated for 7 days with dihydroquercetin (10 μM and 100 μM). Untreated cell cultures served as controls. After 4 and 7 days the hair follicle equivalents were homogenized and the melanin was extracted for 45 minutes using NaOH (1M)+10% DMSO at 100° C. Aliquots of the samples were then transferred into a 96-well plate, and extinction at 492 nm was measured. The increase in melanin content from day 0 to day 7 was evaluated by referring all the values to the untreated control at day 7 (=100%).

The mark [8] stands for this setting: 100 μM, listed as dihydroquercetin.

Results on three compounds are retold here after US20120115944A1, “USE OF CARNITINE AND DIHYDROQUERCITIN TO POSITIVELY INFLUENCE THE NATURAL PIGMENTATION PROCESS” (Henkel AG & Co., KGaA, priority 2009, published 2012).

As to `C[N+](C)(C)CC(O)CC(=O)[O-]` (stereo not shown) [Carnitine, 3-hydroxy-4-(trimethylammonium)butyric acid betaine], in assay [1] (0.01%), the “HGF (%) M, relative excretion” value is given as 105%. For the same compound, the “KGF (%) M, relative excretion” value in assay [2] (0.01%) is 120%. Besides, the “ATP (%) M” value in assay [3] (0.05%) is recorded as 212%; in assay [3] (0.05%, listed as carnitine) it was “increase the ATP content in the treated cultures significantly”; in assay [3] (0.1%), 160%; in assay [3] (0.1%, listed as carnitine), “increase the ATP content in the treated cultures significantly”.

As to `O=C1c2c(O)cc(O)cc2OC(c2ccc(O)c(O)c2)C1O` (stereo not shown) [Dihydroquercetin, 3,3′,4′,5,7-pentahydroxyflavanone], the “ckit expression M (X-times expression)” value in assay [4] (10 μM) is given as 1.32; in assay [4] (100 μM), 3.55; in assay [4] (setting [8]), “induced”. Also, the “MCR1 expression M (X-times expression)” value in assay [5] (10 μM) is 2.56; in assay [5] (10 μM, listed as dihydroquercetin), “significantly differentially expressed”; in assay [5] (100 μM), 5.17; in assay [5] (setting [8]), “induced”. For the same compound, the “gp100 expression M (X-times expression)” value was 0.89 in assay [6] (10 μM), 3.48 in assay [6] (100 μM) and “induced” in assay [6] (setting [8]). Moreover, the “Melanin content (%) M” value in assay [7] (10 μM, d 4) is 100%; in assay [7] (10 μM, d 7, untreated d 7 = 181), 254%; in assay [7] (100 μM, d 4), 100%; in assay [7] (100 μM, d 7, untreated d 7 = 181), 161%.

With `C[N+](C)(C)C[C@H](O)CC(=O)[O-].O=C(O)C(O)C(O)C(=O)O` [Carnitine tartrate, L-carnitine tartrate], the “HGF (%) M, relative excretion” value in assay [1] (0.005%) is listed as 141%. Also, the “KGF (%) M, relative excretion” value in assay [2] (0.005%) came out at 123%. Also, the “ATP (%) M” value is “increase the ATP content in the treated cultures significantly” in assay [3] (0.01%, listed as carnitine tartrate, tartrate); 195% in assay [3] (0.01%, tartrate); 102% in assay [3] (0.05%).
